Results: the supplement of paper PMC10011410
± gives the standard deviation of the averaged measurements.

Tests used:
U-2 OS [1] = assay: intracellular GSH:GSSG ratio (calculated); higher = more reduced glutathione pool; conditions: 24 h
Procedure, shortened: (§1)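 Viability was assessed with CellTiter-Glo, and total glutathione and GSSG with GSH/GSSG-Glo, on separate plates by luminescence. The U-2 OS cells, seeded at 750 per well in white low-volume 384-well plates, were exposed 24 h later to most compounds at 20, 10 and 5 μM in 0.4% DMSO for 24 h at 37 °C. Corrected values from five replicate plates are expressed relative to vehicle or as a GSH:GSSG ratio.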

U-2 OS [2] = assay: cell viability (CellTiter-Glo) relative to DMSO (% of control); higher = more viable; conditions: 24 h
Procedure, shortened: as §1

U-2 OS [3] = assay: total intracellular glutathione (GSH + GSSG) relative to DMSO (% of control); higher = more glutathione; conditions: 24 h
Procedure, shortened: as §1

U-2 OS [4] = assay: cell painting activity score (Mahalanobis distance from DMSO wells); higher = stronger morphological phenotype; conditions: 24 h
Procedure, shortened: (§2)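 In this cell painting assay, roughly 1,500 U-2 OS cells per well in 384-well plates were pin-tool treated at 37 °C for 24 h, typically at six 2-fold steps from 20 μM down to 625 nM. Cells were stained with MitoTracker, concanavalin A, phalloidin, wheat germ agglutinin, Hoechst and SYTO 14, imaged on an Opera Phenix, and analysed in CellProfiler with normalization to same-plate DMSO cells. Reported values are means of four replicate plates, with the activity score defined as the Mahalanobis distance from DMSO wells and cell count defined relative to DMSO wells.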

U-2 OS [5] = assay: relative cell count vs DMSO (cell painting) (fraction of DMSO control); higher = more cells remaining (less cytotoxic); conditions: 24 h
Procedure, shortened: as §2

U-2 OS [6] = assay: AUC of culture confluence over time (live-cell imaging) (AUC (confluence % x time)); higher = more confluent culture (less growth inhibition)
Procedure, shortened: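 Using an Incucyte S3 with a 10x objective, confluence of U-2 OS cells was imaged every 4 h for up to 60 h at 37 °C. The cells had been seeded at 750 per well in 384-well plates in F-12K medium with 10% FBS and treated by pin tool 24 h later, most compounds at 20, 10 and 5 μM with 0.2% DMSO. The value given is the area under the confluence-versus-time curve.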

Structure (SMILES) | intracellular GSH:GSSG ratio (U-2 OS [1]; 5 µM) | intracellular GSH:GSSG ratio (U-2 OS [1]; 10 µM) | intracellular GSH:GSSG ratio (U-2 OS [1]; 20 µM) | cell viability (U-2 OS [2]; 5 µM) | cell viability (U-2 OS [2]; 10 µM) | cell viability (U-2 OS [2]; 20 µM) | total intracellular glutathione (U-2 OS [3]; 5 µM) | total intracellular glutathione (U-2 OS [3]; 10 µM) | total intracellular glutathione (U-2 OS [3]; 20 µM) | cell painting activity score (U-2 OS [4]; 0.625 µM) | cell painting activity score (U-2 OS [4]; 1.25 µM) | cell painting activity score (U-2 OS [4]; 2.5 µM) | cell painting activity score (U-2 OS [4]; 5 µM) | cell painting activity score (U-2 OS [4]; 10 µM) | cell painting activity score (U-2 OS [4]; 20 µM) | relative cell count (U-2 OS [5]; 0.625 µM) | relative cell count (U-2 OS [5]; 1.25 µM) | relative cell count (U-2 OS [5]; 2.5 µM) | relative cell count (U-2 OS [5]; 5 µM) | relative cell count (U-2 OS [5]; 10 µM) | relative cell count (U-2 OS [5]; 20 µM) | AUC of culture confluence over time (U-2 OS [6]; 5 µM) | AUC of culture confluence over time (U-2 OS [6]; 10 µM) | AUC of culture confluence over time (U-2 OS [6]; 20 µM) | intracellular GSH:GSSG ratio (U-2 OS [1]; 40 µM) | intracellular GSH:GSSG ratio (U-2 OS [1]; 80 µM) | cell viability (U-2 OS [2]; 40 µM) | cell viability (U-2 OS [2]; 80 µM) | total intracellular glutathione (U-2 OS [3]; 40 µM) | total intracellular glutathione (U-2 OS [3]; 80 µM) | cell painting activity score (U-2 OS [4]; 40 µM) | cell painting activity score (U-2 OS [4]; 80 µM) | relative cell count (U-2 OS [5]; 40 µM) | relative cell count (U-2 OS [5]; 80 µM) | AUC of culture confluence over time (U-2 OS [6]; 40 µM) | AUC of culture confluence over time (U-2 OS [6]; 80 µM)
CNC(=O)Nc1ccc2c(c1)[C@@]1(CC2)OC(=O)N(CC(=O)N(Cc2ccc(F)cc2)[C@@H](C)C(F)(F)F)C1=O | 20.4 | 29.9 | 16.2 | 105 ± 7.5 | 98.6 ± 12 | 103 ± 9.4 | 100 ± 8.6 | 122 ± 7.3 | 90.4 ± 4 | 4.88 | 6.13 | 4.26 | 5.02 | 5.83 | 4.92 | 0.989 | 1.01 | 0.976 | 1.01 | 0.982 | 0.969 | 45.6 | 49.6 | 44.7 |  |  |  |  |  |  |  |  |  |  |  | 
Cl.Cl.O=C(O)Cn1nnc(-c2ccc(CN(CCCCOc3ccc(CN4CCCC4)cc3)CCc3ccccc3)cc2)n1 | 20.2 | 19.8 | 15.4 | 96.5 ± 5.3 | 100 ± 3.5 | 98.8 ± 6.4 | 99.4 ± 2.1 | 97 ± 3.3 | 95.5 ± 4.5 | 4.83 | 5.3 | 7.08 | 6.29 | 6.41 | 11.1 | 1.2 | 1.1 | 1.12 | 1.13 | 1.14 | 1.01 | 48.1 | 49 | 47.5 | 14.3 | 14 | 88.9 ± 11 | 30.9 ± 15 | 96.7 ± 2.5 | 72.7 ± 5.7 | 11.5 | 32 | 0.376 | 0.0195 | 19.9 | 12.3
Nc1nc(-c2ccccc2)[n+](-c2ccccc2)s1 | 25.1 | 18.2 | 2.7 | 106 ± 3.7 | 105 ± 6.1 | 16 ± 10 | 113 ± 5.1 | 117 ± 8.2 | 26.8 ± 7.4 | 7.03 | 3.42 | 2.65 | 3.42 | 3.28 | 9.72 | 1.06 | 1.11 | 1.04 | 1.13 | 1.08 | 0.605 | 39.6 | 44.4 | 43.3 |  |  |  |  |  |  |  |  |  |  |  | 
Cc1onc(C(=O)N2CCN(C(c3ccc(Cl)cc3)c3ccc(Cl)cc3)CC2)c1[N+](=O)[O-] | 21 | 19.2 | 16.3 | 88.8 ± 4.4 | 92.4 ± 4.1 | 84.1 ± 6.2 | 107.3 ± 0.95 | 110 ± 4.7 | 107 ± 4.3 | 8.18 | 8.49 | 10.6 | 9.26 | 11.2 | 11.3 | 0.903 | 0.945 | 0.883 | 0.853 | 0.9 | 0.81 | 31.1 | 29.2 | 28.8 |  |  |  |  |  |  |  |  |  |  |  | 
O=C(/C(C(N1CC2=CC=CC=C2)=O)=C/C3=C(C)C=C(O)C=C3C)N(CC4=CC=CC=C4)C1=O | 21.3 | 22.8 | 29.1 | 97 ± 6.9 | 98.1 ± 2.9 | 102 ± 6.1 | 99.8 ± 4.9 | 98.5 ± 2.1 | 104 ± 5.8 | 3.82 | 5.14 | 5.14 | 4.49 | 9.6 | 10.8 | 0.901 | 0.839 | 0.861 | 0.841 | 0.776 | 0.292 | 50.9 | 49.8 | 46.2 | 19.1 | 12.4 | 70 ± 23 | 14.7 ± 7.9 | 77.3 ± 11 | 27.7 ± 8 | 8.64 | 16.5 | 0.419 | 0.0657 | 34.6 | 12.1
CCCCCCCCCCCCCCCc1cccc(O)c1C(=O)O | 19 | 18.3 | 24.7 | 102 ± 3 | 106 ± 5.8 | 100 ± 2.9 | 105 ± 3.3 | 94.7 ± 4.2 | 98.8 ± 4.7 | 3.17 | 3.13 | 3.54 | 3.63 | 4.51 | 3.58 | 1.09 | 1.09 | 1.13 | 1.05 | 1.01 | 1.05 | 42.7 | 53.4 | 52.9 | 19.7 | 18.1 | 104 ± 4.9 | 101 ± 5.3 | 95.5 ± 3.8 | 96.7 ± 3.9 | 12.9 | 21 | 0.326 | 0.342 | 51.2 | 40.9
COc1cc2ncnc(Nc3ccc(F)c(Cl)c3)c2cc1NC(=O)/C=C/CN1CCCCC1 | 10.8 | 7.42 | 1.96 | 74.4 ± 5 | 59.5 ± 2.5 | 22.4 ± 5.3 | 81.2 ± 4.8 | 59.3 ± 3.2 | 18.3 ± 12 | 10.6 | 10.4 | 11.7 | 13.9 | 18.6 | 22.1 | 0.624 | 0.681 | 0.586 | 0.503 | 0.331 | 0.035 | 26.9 | 14.6 | 13.7 |  |  |  |  |  |  |  |  |  |  |  | 
O=C(Nc1nc(-c2ccccc2)ns1)c1cccs1 | 16.9 | 13 | 23.8 | 95.9 ± 3.4 | 93.5 ± 3.8 | 97.5 ± 1.8 | 99.8 ± 3.8 | 98.1 ± 5.4 | 103 ± 7.2 | 4.56 | 4.47 | 2.86 | 3.95 | 3.58 | 4.52 | 0.94 | 0.902 | 0.915 | 0.929 | 0.917 | 0.914 | 42.6 | 48.1 | 43.5 |  |  |  |  |  |  |  |  |  |  |  | 
COC(=O)[C@]1(C)CC[C@]2(C)CC[C@]3(C)C4=CC=C5C(=CC(=O)C(O)=C5C)[C@]4(C)CC[C@@]3(C)[C@@H]2C1 | 0.695 | 0.536 |  | 5.12 ± 0.81 | 1.29 ± 0.58 | 0.733 ± 0.056 | 9.07 ± 0.87 | 4.42 ± 1.3 | 3.06 ± 0.32 | 24.2 | 33.5 | 32.8 | 33.4 | 33.5 | 27.7 | 0.0681 | 0.0621 | 0.0626 | 0.0644 | 0.0539 | 0.117 | 11.3 | 11.9 | 14.2 |  |  |  |  |  |  |  |  |  |  |  | 
CCCCCC[C@H]1C(=O)O[C@H](C)[C@H](NC(=O)c2cccc(NC=O)c2O)C(=O)O[C@@H](C)[C@@H]1OC(=O)CC(C)C | 21.6 | 23.5 | 22.4 | 54.1 ± 5.4 | 59.2 ± 1.6 | 56.2 ± 3.1 | 65.6 ± 6.7 | 69.4 ± 4 | 66.1 ± 3 | 12.7 | 13.2 | 12.9 | 12.9 | 12.8 | 12.2 | 0.8 | 0.81 | 0.802 | 0.8 | 0.783 | 0.831 | 38 | 38 | 38.3 |  |  |  |  |  |  |  |  |  |  |  | 
C=CC(=O)Nc1cc2c(Nc3ccc(F)c(Cl)c3)ncnc2cc1OCCCN1CCOCC1 | 7.51 | 1.96 | 0.352 | 57.1 ± 4.1 | 6.54 ± 1.9 | 4.85 ± 1.7 | 69.5 ± 4.6 | 11.2 ± 1.2 | 4.36 ± 0.66 | 15.6 | 19.4 | 27.2 | 25.4 | 25.3 | 26.9 | 0.407 | 0.133 | 0.0844 | 0.0662 | 0.0483 | 0.019 | 19.1 | 13.7 | 9.96 |  |  |  |  |  |  |  |  |  |  |  | 
Cn1nnnc1SC1=CS(=O)(=O)c2ccccc21 | 3.69 | 2.11 | 0.199 | 54.9 ± 6.7 | 65.2 ± 7.2 | 6.9 ± 1.4 | 59.4 ± 4.2 | 85.3 ± 12 | 23.3 ± 3.9 | 5.5 | 8.76 | 12 | 21.3 | 13.8 | 21.5 | 0.936 | 0.834 | 0.727 | 0.392 | 0.322 | 0.255 | 19.6 | 16 | 12.1 |  |  |  |  |  |  |  |  |  |  |  | 
CC(C)[C@H](C(=O)Nc1ccc(C(=O)NO)cc1)c1ccccc1 | 6.7 | 7.56 |  | 44.2 ± 4.6 | 44 ± 1.6 | 44 ± 1.6 | 40.8 ± 2.6 | 40.5 ± 3.5 | 39.6 ± 4.1 | 16.9 | 20.2 | 19.4 | 17.6 | 13.3 | 15.9 | 0.727 | 0.52 | 0.497 | 0.465 | 0.442 | 0.41 | 18.7 | 20 | 18.2 |  |  |  |  |  |  |  |  |  |  |  | 
C=CC(=O)N1CCC[C@@H](n2nc(-c3ccc(Oc4ccccc4)cc3)c3c(N)ncnc32)C1 | 21.3 | 20 | 13.5 | 87.8 ± 1.4 | 87.6 ± 4 | 82 ± 3.9 | 89.1 ± 3.4 | 94.8 ± 4.3 | 85.1 ± 9.8 | 5.26 | 6.98 | 6.19 | 8.03 | 8.01 | 12.2 | 1.09 | 1.02 | 1.09 | 1.11 | 1.03 | 1.03 | 37.7 | 27.5 | 20.6 |  |  |  |  |  |  |  |  |  |  |  | 
